In PubChem BioAssay (NCI) one finds GI50 and TGI data, which are given here for twelve compounds.

Among the test systems are RXF 393 renal; MOLT-4 leukemia; SNB-19 CNS; 786-0 renal; OVCAR-3 ovarian; CCRF-CEM leukemia; TK-10 renal; DU-145 prostate; MDA-MB-435; HT29 colon.
What all share (experiment): inhibition of tumour cell growth, NCI panel, 48 h

Several values for one entry are separate records, joined by “and”; a condition that tells them apart may be missing. Identical values can stand only once.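 Protocol summary: plate cells (96-well), add compound at 5 concentrations, incubate 48 h, interpolate endpoints linearly. The concentration for 50% growth inhibition is given as GI50. TGI denotes the concentration required for complete inhibition of growth.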 Some results are limits rather than exact numbers.

Take `C#Cc1cccc(NC(=O)C2CCCCN2C(=O)CCl)c1` (stereo unspecified): the GI50 in the assay with RXF 393 renal is 13.4 µM; in the assay on MOLT-4 leukemia, 12 µM; in the assay on SNB-19 CNS, more than 82.5 µM; in the assay with 786-0 renal, 16.2 µM; with OVCAR-3 ovarian, 10.1 µM; in the assay with CCRF-CEM leukemia, 3.99 µM. For the same compound, the GI50 in the assay on TK-10 renal was 15.6 µM; in the assay with DU-145 prostate, 24.4 µM; in the assay on MDA-MB-435, 15.8 µM; in the assay with HT29 colon it was 18.7 µM. Also, the TGI with RXF 393 renal is 34.4 µM; in the assay on MOLT-4 leukemia it was 52.9 µM; with SNB-19 CNS it was more than 82.5 µM; in the assay with 786-0 renal, 32 µM; with OVCAR-3 ovarian it was 22.2 µM; in the assay with CCRF-CEM leukemia, 50.1 µM. The TGI in the assay on TK-10 renal is 33.6 µM; in the assay with DU-145 prostate, more than 82.5 µM; in the assay on MDA-MB-435, 60.7 µM; in the assay with HT29 colon, 41.9 µM.
As to `COc1ccc(C2CC(=O)Nc3c2c(C)nn3-c2nc3ccccc3[nH]2)cc1OC` (stereo unspecified), the GI50 with RXF 393 renal was 2.19 µM; with MOLT-4 leukemia, 0.0405 µM; in the assay with SNB-19 CNS, 8.64 µM; in the assay on 786-0 renal, 5.2 µM; in the assay with OVCAR-3 ovarian, 3.99 µM; in the assay with CCRF-CEM leukemia it was 1.62 µM. The GI50 is 8.95 µM with TK-10 renal, 6.87 µM in the assay with DU-145 prostate, 3.25 µM in the assay on MDA-MB-435 and 5.66 µM in the assay with HT29 colon. For the same compound, the TGI with RXF 393 renal is 5.69 µM; in the assay on MOLT-4 leukemia, 0.27 µM; in the assay on SNB-19 CNS it was more than 100 µM; in the assay on 786-0 renal it was 24.8 µM; in the assay on OVCAR-3 ovarian, 14 µM; in the assay on CCRF-CEM leukemia, more than 96.3 µM. The TGI in the assay on TK-10 renal turned out to be 93.5 µM; in the assay with DU-145 prostate, 27.1 µM; with MDA-MB-435, 18.3 µM; with HT29 colon, 40 µM.
Regarding `Nc1cc2c3ccccc3ccc2c2ccccc12`, the GI50 was more than 100 µM with RXF 393 renal; more than 100 µM in the assay with MOLT-4 leukemia; more than 100 µM with SNB-19 CNS; more than 100 µM in the assay with 786-0 renal; more than 67 µM in the assay with OVCAR-3 ovarian; 8 µM in the assay with CCRF-CEM leukemia. In addition, the GI50 in the assay with TK-10 renal was more than 100 µM; in the assay on DU-145 prostate, more than 87.4 µM; in the assay with MDA-MB-435, more than 56.1 µM; with HT29 colon, more than 100 µM. The TGI with RXF 393 renal, in the assay on MOLT-4 leukemia, with SNB-19 CNS, with 786-0 renal, in the assay on OVCAR-3 ovarian and in the assay with CCRF-CEM leukemia was more than 100 µM each time. The TGI in the assay with TK-10 renal, in the assay on DU-145 prostate, in the assay on MDA-MB-435 and in the assay with HT29 colon was more than 100 µM in each case.
For `O=C(Nc1ccc(-c2cn3ccccc3n2)cc1)c1cc(Br)ccc1O`, the TGI in the assay with RXF 393 renal, with MOLT-4 leukemia, with SNB-19 CNS, in the assay with 786-0 renal, with OVCAR-3 ovarian and in the assay on CCRF-CEM leukemia was more than 100 µM each time. Moreover, the TGI in the assay on TK-10 renal, with DU-145 prostate, in the assay with MDA-MB-435 and in the assay with HT29 colon was more than 100 µM each time.
As for `CCN1C(=O)N(CC)C2C1NN=c1s/c(=C\c3ccc(Br)cc3)c(=O)n12` (stereo unspecified), the GI50 was 0.147 µM in the assay on RXF 393 renal; 0.392 µM in the assay on MOLT-4 leukemia; 0.346 µM in the assay with SNB-19 CNS; 0.163 µM in the assay with 786-0 renal; 0.102 µM in the assay on OVCAR-3 ovarian; 0.246 µM with CCRF-CEM leukemia. For the same compound, the GI50 was 0.741 µM in the assay on TK-10 renal, 0.352 µM in the assay on DU-145 prostate, 0.0252 µM in the assay on MDA-MB-435 and 0.0757 µM with HT29 colon. In addition, the TGI in the assay on RXF 393 renal was more than 100 µM; with MOLT-4 leukemia it was more than 100 µM; in the assay on SNB-19 CNS it was more than 100 µM; with 786-0 renal it was more than 100 µM; in the assay with OVCAR-3 ovarian, more than 100 µM; in the assay on CCRF-CEM leukemia, more than 33.1 µM. The TGI was more than 100 µM in the assay with TK-10 renal, more than 100 µM in the assay on DU-145 prostate, 0.0706 µM in the assay on MDA-MB-435 and more than 100 µM with HT29 colon.
For `CC1(/C=C/c2ccc(-c3ccccc3)cc2)CCn2cnc3ncnc(c32)N1O` (stereo unspecified), the GI50 is 0.88 µM in the assay on RXF 393 renal; 0.347 µM in the assay on MOLT-4 leukemia; 0.526 µM in the assay with SNB-19 CNS; 0.259 µM with 786-0 renal; 0.425 µM in the assay with OVCAR-3 ovarian; 0.153 µM with CCRF-CEM leukemia. In addition, the GI50 in the assay with TK-10 renal is 0.492 µM; with DU-145 prostate, 0.53 µM; in the assay on MDA-MB-435, 0.646 µM; with HT29 colon, 0.526 µM. In addition, the TGI in the assay with RXF 393 renal was 40.3 µM; in the assay with MOLT-4 leukemia it was 27.9 µM; in the assay on SNB-19 CNS, more than 72.6 µM; in the assay with 786-0 renal, 4.49 µM; with OVCAR-3 ovarian, 20.7 µM; in the assay with CCRF-CEM leukemia, 41.5 µM. For the same compound, the TGI is more than 100 µM with TK-10 renal, more than 56.7 µM with DU-145 prostate, 39.6 µM in the assay with MDA-MB-435 and 41.7 µM in the assay on HT29 colon.
Regarding `CN1CCN(CCCn2c3c(sc4ncccc43)c(=O)n3nnc(-c4ccccc4)c23)CC1`, the GI50 is 4.4 µM in the assay with RXF 393 renal; 0.889 µM with MOLT-4 leukemia; 2.48 µM in the assay with SNB-19 CNS; 5.81 µM in the assay with 786-0 renal; 1.81 µM in the assay with OVCAR-3 ovarian; 1.57 µM in the assay with CCRF-CEM leukemia. Besides, the GI50 with TK-10 renal is 3.15 µM; in the assay with DU-145 prostate, 1.67 µM; in the assay on MDA-MB-435, 1.79 µM; in the assay with HT29 colon, 1.82 µM. The TGI worked out at 8.75 µM in the assay with RXF 393 renal; 2.86 µM with MOLT-4 leukemia; 5.82 µM in the assay on SNB-19 CNS; 10.7 µM in the assay with 786-0 renal; 3.42 µM with OVCAR-3 ovarian; 4.08 µM in the assay on CCRF-CEM leukemia. Moreover, the TGI in the assay with TK-10 renal was determined as 10.7 µM; in the assay on DU-145 prostate, 3.24 µM; with MDA-MB-435, 3.5 µM; with HT29 colon it was 3.88 µM.
With `Cn1cc(-c2nc(-c3c[nH]c4ccccc34)cs2)c2cccnc21`, the GI50 was 0.368 µM in the assay with RXF 393 renal; 0.757 µM with MOLT-4 leukemia; 0.53 µM in the assay with SNB-19 CNS; 0.525 µM with 786-0 renal; 0.2 µM in the assay with OVCAR-3 ovarian; 0.353 µM in the assay on CCRF-CEM leukemia. Also, the GI50 was 1.46 µM with TK-10 renal, 0.564 µM in the assay on DU-145 prostate, 0.0321 µM in the assay on MDA-MB-435 and 0.166 µM in the assay with HT29 colon. In addition, the TGI is 15.9 µM with RXF 393 renal; more than 60.3 µM with MOLT-4 leukemia; more than 100 µM in the assay with SNB-19 CNS; 49.4 µM in the assay on 786-0 renal; 5.9 µM with OVCAR-3 ovarian; more than 100 µM in the assay with CCRF-CEM leukemia. The TGI was 65.1 µM with TK-10 renal, more than 100 µM with DU-145 prostate, 0.25 µM in the assay on MDA-MB-435 and 18.3 µM in the assay on HT29 colon.
On to `Nc1[nH]c(=S)[nH]c(=O)c1N=Nc1c(Br)cc(S(N)(=O)=O)cc1Br`, for which the TGI in the assay on RXF 393 renal, in the assay with MOLT-4 leukemia, with SNB-19 CNS, with 786-0 renal, with OVCAR-3 ovarian and with CCRF-CEM leukemia was more than 100 µM in each case. For the same compound, the TGI in the assay with TK-10 renal, with DU-145 prostate, in the assay on MDA-MB-435 and in the assay with HT29 colon was more than 100 µM in each case.
For `CC(=O)OCc1cc[c]([Hg][Cl])o1`, the GI50 with RXF 393 renal is 5.12 µM; in the assay with MOLT-4 leukemia, 2.07 µM; with SNB-19 CNS, 3.08 µM; in the assay on 786-0 renal, 3.88 µM; in the assay on OVCAR-3 ovarian, 3.97 µM; with CCRF-CEM leukemia, 2.08 µM. Besides, the GI50 in the assay with TK-10 renal was 2.72 µM; in the assay on DU-145 prostate, 13.6 µM; with MDA-MB-435, 3.54 µM; in the assay on HT29 colon, 5.61 µM. Also, the TGI in the assay on RXF 393 renal worked out at 17.4 µM; with MOLT-4 leukemia it was 8.46 µM; with SNB-19 CNS, 12 µM; in the assay on 786-0 renal, 13.2 µM; with OVCAR-3 ovarian, 16.2 µM; in the assay with CCRF-CEM leukemia, 8.85 µM. For the same compound, the TGI in the assay with TK-10 renal is 5.89 µM; in the assay on DU-145 prostate, 26.4 µM; in the assay with MDA-MB-435, 15.5 µM; in the assay with HT29 colon it was 26.3 µM.
Regarding `Cn1cc(-c2[nH]c3cc(NC(=O)[C@H](N)C4CCCCC4)cc4c3c2C=NNC4=O)cn1`, the GI50 in the assay with RXF 393 renal is 0.104 µM and 0.187 µM; in the assay on MOLT-4 leukemia, 0.287 µM and 0.334 µM; in the assay with SNB-19 CNS, 0.65 µM and 0.47 µM; with 786-0 renal, 0.256 µM and 0.315 µM; in the assay with OVCAR-3 ovarian, 0.229 µM and 0.144 µM; with CCRF-CEM leukemia it was 0.0345 µM and 0.056 µM. Moreover, the GI50 with TK-10 renal is 0.675 µM and 0.467 µM; in the assay with DU-145 prostate it was 0.508 µM and 0.528 µM; with MDA-MB-435, 0.245 µM and 0.286 µM; with HT29 colon it was 1.44 µM and 0.994 µM. Further, the TGI is 0.502 µM and 0.745 µM in the assay on RXF 393 renal; 0.797 µM and > 6.55 µM in the assay on MOLT-4 leukemia; 19.7 µM and > 10 µM in the assay with SNB-19 CNS; 3.02 µM and 3.73 µM with OVCAR-3 ovarian; 0.507 µM and > 3.89 µM in the assay on CCRF-CEM leukemia; 12.7 µM and > 10 µM with TK-10 renal. Also, the TGI was 19.8 µM and > 10 µM with DU-145 prostate; 1.23 µM and 1.28 µM in the assay on MDA-MB-435; 8.24 µM and > 10 µM in the assay with HT29 colon.
`OC(CBr)C(O)C(O)C(O)CBr` (stereo unspecified): the TGI is more than 100 µM in the assay with RXF 393 renal; more than 30.4 µM in the assay with MOLT-4 leukemia; more than 100 µM in the assay on SNB-19 CNS; more than 67.9 µM in the assay on 786-0 renal; 97 µM and > 100 µM in the assay with OVCAR-3 ovarian; more than 100 µM in the assay with CCRF-CEM leukemia. In addition, the TGI in the assay on TK-10 renal, with DU-145 prostate, in the assay on MDA-MB-435 and in the assay on HT29 colon was more than 100 µM each time. The GI50 in the assay on MOLT-4 leukemia was 10.8 µM; in the assay on SNB-19 CNS it was 36 µM and > 100 µM.
